Test [1] concerns A. baumannii 1363934 [OXA 51, OXA 23]. The experiment in a line: MIC by agar dilution (Muller Hinton Agar, CLSI). In kind it is cell-based. As to conditions: Acinetobacter baumannii, A. baumannii 1363934. The procedure: (§1) The antibacterial activity of combinations according to the invention was investigated against various bacterial strains. In a typical study, minimum inhibitory concentrations (MIC) were determined using Muller Hinton Agar (MHA) (BD, USA) according to Clinical and Laboratory Standards Institute (CLSI) recommendations, (Clinical and Laboratory Standards Institute (CLSI), Performance Standards for Antimicrobial Susceptibility Testing, 20th Informational Supplement, M 100-S20, Volume 30, No. 1, 2010). In short, the inocula were adjusted to deliver about 10^4 colony forming units (CFU) per spot with a multipoint inoculator (Applied Quality Services, UK). The plates were pored with doubling concentration range of the test combinations according to invention containing MHA. The plates were inoculated and were incubated at 35° C. for 18 hours.
Background: In agar dilution the substance is mixed into plates at graded concentrations.

Test [2] relates to A. baumannii 1449880 [OXA 51, OXA 23]. The experiment in a line: MIC by agar dilution (Muller Hinton Agar, CLSI). In kind it is cell-based. The settings on record: Acinetobacter baumannii, A. baumannii 1449880. The procedure:
as §1

Test [3] concerns A. baumannii J 145 [OXA 51, OXA 24]. As to the kind of experiment: MIC by agar dilution (Muller Hinton Agar, CLSI). The test is classed as cell-based. As to conditions: Acinetobacter baumannii, A. baumannii J 145. As for the experimental part: as §1
Test [4] relates to A. baumannii NCTC 13302 [OXA 51, OXA 25]. As to the kind of experiment: MIC by agar dilution (Muller Hinton Agar, CLSI). The settings on record: Acinetobacter baumannii, NCTC13302, A. baumannii NCTC 13302. In kind it is cell-based. As for the experimental part: as §1
Test [5] has as its system A. baumannii NCTC 13304 [OXA 51, OXA 27]. The experiment in a line: MIC by agar dilution (Muller Hinton Agar, CLSI). The test is classed as cell-based. The settings on record: Acinetobacter baumannii, NCTC13304, A. baumannii NCTC 13304. As for the experimental part: as §1
Test [6] has as its system A. baumannii S 8 [OXA 51, OXA 23]. The experiment in a line: MIC by agar dilution (Muller Hinton Agar, CLSI). The test is classed as cell-based. The settings on record: Acinetobacter baumannii, A. baumannii S 8. The procedure:
as §1

In test [7] the test system is Acinetobacter baumannii NCTC 13301 producing Carbapenemase hydrolyzing OXA 23 enzyme. As to the kind of experiment: Time kill study. The test is classed as cell-based. As to conditions: for Effect on bacterial count throughout the duration of the study (in words): cefepime, sulbactam, imipenem at 8 mcg/ml, compound of Formula (I) at 4 mcg/ml, alone or in combination. As for the experimental part:
(§2) The synergistic killing effect of the combinations according to invention was studied by performing typical time kill studies. Typically, freshly grown cultures were diluted to the required cell density (initial starting inoculum) in Cation adjusted Muller Hinton broth medium (BD, USA). The antibacterial agents at the required concentrations were added into the culture-containing medium either alone or in combination. The samples were incubated under shaking condition (120 rpm) at 37° C. Enumeration of viable bacterial count was undertaken, every 2 hour, by diluting in normal saline and plating on to the Tryptic Soya Agar plates (BD, USA). The plates were incubated for 24 hours to arrive at the viable bacterial count. […] The decrease of 1 Log CFU/ml, after administration of combination of present invention, in comparison to initial bacterial count corresponds to 90% killing of bacteria. Similarly, 2 Log CFU/ml reductions corresponds to 99% killing of bacteria and 3 Log CFU/ml reductions is equal to 99.9% killing of bacteria.
(§3) The assay without any antibacterial agent was taken as control.

Test [8] deals with Acinetobacter baumannii NCTC 13302 producing carbapenemase hydrolyzing OXA 25 enzyme. The experiment in a line: Time kill study. In kind it is cell-based. As to conditions: for Effect on bacterial count throughout the duration of the study (in words): cefepime, sulbactam, imipenem at 8 mcg/ml, compound of Formula (I) at 4 mcg/ml, alone or in combination. As for the experimental part: as §2, §3

Test [9] deals with carbapenam hydrolyzing (CHDL) and oxacillinases (OXA) producing Acinetobactor strains. As to the kind of experiment: Antibacterial activity, summary statements over Tables 1-3. The test is classed as cell-based, Acinetobacter baumannii. The settings on record: for Antibacterial effect against highly resistant strains of A. baumannii (in words): summary of Tables 1-3. As for the experimental part:
as §1, §2

[10] abbreviates: with Compound of Formula (I) at 4 mcg/ml, read-out: MIC (mcg/ml) in presence of Compound of Formula (I) at 4 mcg/ml.
Where [11] appears, read: with Compound of Formula (I) at 8 mcg/ml, read-out: MIC (mcg/ml) in presence of Compound of Formula (I) at 8 mcg/ml.
The mark [12] stands for this setting: 0 hours, agent alone at 8 mcg/ml.
The mark [13] stands for this setting: 2 hours, agent alone at 8 mcg/ml.
[14] abbreviates: 4 hours, agent alone at 8 mcg/ml.
Where [15] appears, read: 6 hours, agent alone at 8 mcg/ml.
The mark [16] stands for this setting: 8 hours, agent alone at 8 mcg/ml.
[17] abbreviates: 0 hours, agent alone at 4 mcg/ml.
Setting [18] is: 2 hours, agent alone at 4 mcg/ml.
Where [19] appears, read: 4 hours, agent alone at 4 mcg/ml.
[20] abbreviates: 6 hours, agent alone at 4 mcg/ml.
Setting [21] is: 8 hours, agent alone at 4 mcg/ml.

Where two headings read alike, the source gives them in different places. Bounds are passed on as bounds.

These results are taken from patent publication US20170151221A1, “PHARMACEUTICAL COMPOSITIONS COMPRISING CEFEPIME OR SULBACTAM” (priority 2014, published 2017).

In the case of `CO/N=C(\C(=O)N[C@@H]1C(=O)N2C(C(=O)[O-])=C(C[N+]3(C)CCCC3)CS[C@H]12)c1csc(N)n1` [Cefepime], the MIC in test [1] (agent alone, read-out: MIC) was above 32 µg/mL; in test [1] (setting [10]), 16 µg/mL; in [1] (setting [11]), 8 µg/mL; in test [2] (agent alone, read-out: MIC), above 32 µg/mL; in test [2] (setting [10]), 2 µg/mL; in [2] (setting [11]), 2 µg/mL. Also, the MIC was found to be 32 µg/mL in [3] (agent alone, read-out: MIC); 16 µg/mL in test [3] (setting [10]); 8 µg/mL in test [3] (setting [11]); 32 µg/mL in [4] (agent alone, read-out: MIC); 8 µg/mL in [4] (setting [10]); 8 µg/mL in test [4] (setting [11]). Besides, the MIC in [5] (agent alone, read-out: MIC) was 32 µg/mL; in [5] (setting [10]), 8 µg/mL; in test [5] (setting [11]), 4 µg/mL; in test [6] (agent alone, read-out: MIC) it was above 32 µg/mL; in test [6] (setting [10]), 8 µg/mL; in [6] (setting [11]), 8 µg/mL. The “Bacterial count (Log10 CFU/ml)” value was 6.32 Log10 CFU/ml in test [7] (setting [12]); 8.26 Log10 CFU/ml in test [7] (setting [13]); 8.06 Log10 CFU/ml in test [7] (setting [14]); 8.26 Log10 CFU/ml in test [7] (setting [15]); 8.13 Log10 CFU/ml in test [7] (setting [16]); 6.30 Log10 CFU/ml in [8] (setting [12]). Further, the “Bacterial count (Log10 CFU/ml)” value in [8] (setting [13]) is reported as 7.740 Log10 CFU/ml; in test [8] (setting [14]), 7.929 Log10 CFU/ml; in [8] (setting [15]), 7.662 Log10 CFU/ml; in test [8] (setting [16]), 7.56 Log10 CFU/ml. The “Effect on bacterial count throughout the duration of the study (in words)” value in [7] (8 hours) and in [8] (8 hours) was “not effective to decrease the bacterial count” each time. Besides, the “Change of MIC values in the presence of compound of Formula (I) (in words)” value in test [9] (Table 1 strains, compound of Formula (I) at 4 or 8 mcg/ml) is given as “significantly decreased”. In test [9], the “Antibacterial effect against highly resistant strains of A. baumannii (in words)” value was “ineffective”.

Take `O=C(NNC(=O)[C@@H]1CC[C@@H]2CN1C(=O)N2OS(=O)(=O)O)[C@@H]1CCNC1` [Compound of Formula (I), trans-sulfuric acid mono-[2-(N′-[(R)-pyrrolidin-3-carbonyl]-hydrazinocarbonyl)-7-oxo-1,6-diaza-bicyclo[3.2.1]oct-6-yl] ester]: the MIC in test [1] (agent alone, read-out: MIC) is above 128 µg/mL; in [2] (agent alone, read-out: MIC), above 128 µg/mL; in test [3] (agent alone, read-out: MIC), above 128 µg/mL; in test [4] (agent alone, read-out: MIC) it was above 128 µg/mL; in test [5] (agent alone, read-out: MIC), above 128 µg/mL; in test [6] (agent alone, read-out: MIC), above 128 µg/mL. Further, the “Bacterial count (Log10 CFU/ml)” value in test [7] (setting [17]) is 6.32 Log10 CFU/ml; in test [7] (setting [18]), 8.02 Log10 CFU/ml; in test [7] (setting [19]), 8.36 Log10 CFU/ml; in test [7] (setting [20]) it was 8.35 Log10 CFU/ml; in [7] (setting [21]), 8.39 Log10 CFU/ml; in test [8] (setting [17]), 6.30 Log10 CFU/ml. Moreover, the “Bacterial count (Log10 CFU/ml)” value in test [8] (setting [18]) is on record as 7.903 Log10 CFU/ml; in test [8] (setting [19]), 7.845 Log10 CFU/ml; in test [8] (setting [20]) it was 7.875 Log10 CFU/ml; in [8] (setting [21]), 8.04 Log10 CFU/ml. Besides, the “Effect on bacterial count throughout the duration of the study (in words)” value in test [7] (8 hours) and in [8] (8 hours) was “not effective to decrease the bacterial count” throughout. Also, in [9], the “Antibacterial effect against highly resistant strains of A. baumannii (in words)” value is “ineffective”.

As for `C[C@@H](O)[C@H]1C(=O)N2C(C(=O)O)=C(SCCN=CN)C[C@H]12` [Imipenem], the MIC in test [1] (agent alone, read-out: MIC) is above 32 µg/mL; in test [2] (agent alone, read-out: MIC), 8 µg/mL; in test [3] (agent alone, read-out: MIC), above 32 µg/mL; in test [4] (agent alone, read-out: MIC) it was above 32 µg/mL; in [5] (agent alone, read-out: MIC), above 32 µg/mL; in test [6] (agent alone, read-out: MIC), 16 µg/mL. Also, the “Bacterial count (Log10 CFU/ml)” value in test [7] (setting [12]) is 6.32 Log10 CFU/ml; in test [7] (setting [13]), 8.20 Log10 CFU/ml; in [7] (setting [14]) it was 8.43 Log10 CFU/ml; in test [7] (setting [15]) it was 8.43 Log10 CFU/ml; in [7] (setting [16]), 8.51 Log10 CFU/ml; in [8] (setting [12]) it was 6.30 Log10 CFU/ml. The “Bacterial count (Log10 CFU/ml)” value in test [8] (setting [13]) turned out to be 8.079 Log10 CFU/ml; in test [8] (setting [14]), 8.703 Log10 CFU/ml; in [8] (setting [15]), 8.176 Log10 CFU/ml; in test [8] (setting [16]) it was 8.38 Log10 CFU/ml.
